Assay results as given in patent US20220274961A1, “SUBSTITUTED FUSED BI- OR TRI- HETEROCYCLIC COMPOUNDS AS EHMT2 INHIBITORS” (priority 2016, published 2022).

Biological target: T1, human EHMT2 913-1193 (Homo sapiens, UniProt Q96KQ7)
T1 construct: recombinant purified human EHMT2 913-1193, Viva; purchased Viva
T1 sequence (Q96KQ7 913-1193): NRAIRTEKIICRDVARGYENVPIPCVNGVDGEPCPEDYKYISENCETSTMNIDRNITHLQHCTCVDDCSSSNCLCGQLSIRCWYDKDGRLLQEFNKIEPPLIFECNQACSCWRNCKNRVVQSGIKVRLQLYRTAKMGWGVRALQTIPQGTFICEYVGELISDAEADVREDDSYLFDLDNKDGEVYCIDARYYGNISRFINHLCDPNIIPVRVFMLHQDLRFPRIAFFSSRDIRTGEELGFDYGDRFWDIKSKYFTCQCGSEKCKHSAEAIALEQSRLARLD
Assay: biochemical
Details: not given
From the text: Biotinylated histone peptides were synthesized by Biopeptide and HPLC-purified to >95% purity. Streptavidin Flashplates and seals were purchased from PerkinElmer and 384 Well V-bottom Polypropylene Plates were from Greiner. ^3H-labeled S-adenosylmethionine (^3H-SAM) was obtained from American Radiolabeled Chemicals with a specific activity of 80 Ci/mmol. Unlabeled SAM and S-adenosylhomocysteine (SAH) were obtained from American Radiolabeled Chemicals and Sigma-Aldrich respectively. […] 384-well Flashplates and 96-well filter binding plates were read on a TopCount microplate reader (PerkinElmer). Compound serial dilutions were performed on a Freedom EVO (Tecan) and spotted into assay plates using a Thermo Scientific Matrix PlateMate (Thermo Scientific). Reagent cocktails were added by Multidrop Combi (Thermo Scientific).
General Procedure for EHMT2 Enzyme Assay on Histone Peptide Substrate. 10-point curves of test compounds were made on a Freedom EVO (Tecan) using serial 3-fold dilutions in DMSO, beginning at 2.5 mM (final top concentration of compound was 50 μM and the DMSO was 2%). A 1 μL aliquot of the inhibitor dilution series was spotted in a polypropylene 384-well V-bottom plate (Greiner) using a Thermo Scientific Matrix PlateMate (Thermo Scientific). […] Reactions were incubated for 60 minutes at room temperature and quenched with 10 μL per well of 400 μM unlabeled SAM, then transferred to a 384-well streptavidin Flashplate (PerkinElmer) and washed in a Biotek ELx-405 well washer with 0.1% Tween after 60 minutes. 384-well Flashplates were read on a TopCount microplate reader (PerkinElmer).

Structure (SMILES) | IC50
COc1cc2c(cc1OCCCN1CCCC1)N=C(N)C21CCOC1 (stereo not drawn) [Compound 7, 5′-methoxy-6′-(3-(pyrrolidin-1-yl)propoxy)-4,5-dihydro-2H-spiro[furan-3,3′-indol]-2′-amine] | < 0.1 µM

Same assay, conditions: recombinant human EHMT2 913-1193, histone H3 1-15 peptide, 3H-SAM, balanced conditions; read-out: EHMT2 PEP (IC50 μM)

Structure (SMILES) | IC50
COc1cc2[nH]c(N)nc2cc1OCCCN1CCCC1 [Compound 1, 6-methoxy-5-(3-(pyrrolidin-1-yl)propoxy)-1H-benzo[d]imidazol-2-amine] | < 0.1 µM
COc1cc2c(cc1OCCCN1CCCC1)nc(N)n2C [Compound 2, 6-methoxy-1-methyl-5-(3-(pyrrolidin-1-yl)propoxy)-1H-benzo[d]imidazol-2-amine] | < 0.1 µM
COc1cc2c(cc1OCCCN1CCCC1)nc(N)n2C1CCCC1 [Compound 3, 1-cyclopentyl-6-methoxy-5-(3-(pyrrolidin-1-yl)propoxy)-1H-benzo[d]imidazol-2-amine] | < 0.1 µM
COc1cc2c(cc1OCCCN1CCCC1)N=C(N)C21CCOCC1 [Compound 5, 5-methoxy-6-(3-(pyrrolidin-1-yl)propoxy)-2′,3′,5′,6′-tetrahydrospiro[indole-3,4′-pyran]-2-amine] | < 0.1 µM
COc1cc2sc(N)nc2cc1OCCCN1CCCC1 [Compound 6, 6-methoxy-5-[3-(pyrrolidin-1-yl)propoxy]-1,3-benzothiazol-2-amine] | 1 to 10 µM
CNc1nc2cc(OCCCN3CCCC3)c(OC)cc2n1C [Compound 8, 6-methoxy-N,1-dimethyl-5-(3-(pyrrolidin-1-yl)propoxy)-1H-benzo[d]imidazol-2-amine] | < 0.1 µM
CCN1CC[C@@H](COc2cc3nc(N)n(C4CCCC4)c3cc2OC)C1 [Compound 9, 1-cyclopentyl-5-[[(3R)-1-ethylpyrrolidin-3-yl]methoxy]-6-methoxy-1H-1,3-benzodiazol-2-amine] | < 0.1 µM
CCN1CC(COc2cc3nc(N)n(C4CCCC4)c3cc2OC)C1 [Compound 10, 1-cyclopentyl-5-((1-ethylazetidin-3-yl)methoxy)-6-methoxy-1H-benzo[d]imidazol-2-amine] | 0.1 to 1 µM
COc1cc2c(cc1OCCCN1CCCC1)nc(N)n2CC(F)(F)F [Compound 11, 6-methoxy-5-(3-(pyrrolidin-1-yl)propoxy)-1-(2,2,2-trifluoroethyl)-1H-benzo[d]imidazole-2-amine] | 0.1 to 1 µM
COc1cc2c(cc1OCCCN1CCCC1)nc(NCC(F)(F)F)n2C [Compound 12, 6-methoxy-1-methyl-5-(3-(pyrrolidin-1-yl)propoxy)-N-(2,2,2-trifluoroethyl)-1H-benzo[d]imidazol-2-amine] | 1 to 10 µM
CNc1nc2cc(OCCCN3CCCC3)c(OC)cc2n1C1CCOCC1 [Compound 13, 6-methoxy-N-methyl-5-(3-(pyrrolidin-1-yl)propoxy)-1-(tetrahydro-2H-pyran-4-yl)-1H-benzo[d]imidazol-2-amine] | < 0.1 µM
COc1cc2c(cc1OCCCN1CCCC1)nc(N)n2CC1CCOCC1 [Compound 18] | 0.1 to 1 µM
COc1cc2c(cc1OCCCN1CCCC1)nc(N)n2C(C)C [Compound 19] | < 0.1 µM
COc1cc2c(cc1OCCCN1CCCC1)nc(C)n2C [Compound 21, 6-methoxy-1,2-dimethyl-5-(3-(pyrrolidin-1-yl)propoxy)-1H-benzo[d]imidazole] | 1 to 10 µM
COc1cc2c(cc1OCCCN1CCCC1)nc(C1CCCC1)n2C [Compound 22, 2-cyclopentyl-6-methoxy-1-methyl-5-(3-(pyrrolidin-1-yl)propoxy)-1H-benzo[d]imidazole] | 1 to 10 µM
COc1cc2c(cc1OCCCN1CCCC1)nc(C)n2C1CCCC1 [Compound 23, 1-cyclopentyl-6-methoxy-2-methyl-5-(3-(pyrrolidin-1-yl)propoxy)-1H-benzo[d]imidazole] | 0.1 to 1 µM
COc1cc2c(cc1C#CCN1CCCC1)N=C(N)C21CCC1 [Compound 24, 5′-methoxy-6′-(3-(pyrrolidin-1-yl)prop-1-yn-1-yl)spiro[cyclobutane-1,3′-indol]-2′-amine] | < 0.1 µM
CNc1nc2cc(OC[C@H](O)CN3CCC3)c(OC)cc2n1C [Compound 25] | 0.1 to 1 µM
CNc1nc2cc(OC[C@H](O)CN3CCCC3)c(OC)cc2n1C [Compound 26] | 0.1 to 1 µM
CCNc1nc2cc(OCCCN3CCCC3)c(OC)cc2n1C [Compound 27] | 0.1 to 1 µM

Second part, the compound after the results:

IC50 | Structure (SMILES)
0.1 to 1 µM | COc1cc2c(cc1OCCCN1CCCC1)nc(NC(C)C)n2C [Compound 28]
1 to 10 µM | COc1cc2c(cc1OCCCN1CCCC1)nc(NC1CCOCC1)n2C [Compound 29]
0.1 to 1 µM | COc1cc2c(cc1OCCCN1CCCC1)nc(NC1CCCC1)n2C [Compound 30]
0.1 to 1 µM | CCNc1nc2cc(OC[C@H](O)CN3CCCC3)c(OC)cc2n1C [Compound 31]
0.1 to 1 µM | COc1cc2c(cc1OC[C@H](O)CN1CCCC1)nc(NC(C)C)n2C [Compound 32]
0.1 to 1 µM | COc1cc2c(cc1OC[C@H](O)CN1CCCC1)nc(NC1CCCC1)n2C [Compound 33]
0.1 to 1 µM | COc1cc2c(cc1OC[C@H](O)CN1CCCC1)nc(NCC1CC1)n2C [Compound 34]
1 to 10 µM | COc1cc2c(cc1OC[C@H](O)CN1CCCC1)nc(NC1CCOCC1)n2C [Compound 35]
< 0.1 µM | CNc1nc2cc(OCCCN3CCCC3)c(OC)cc2n1C(C)C [Compound 36]
< 0.1 µM | CNc1nc2cc(CNCCN3CCCC3)c(OC)cc2n1C [Compound 37]
< 0.1 µM | CNc1nc2cc(OC[C@H](O)CN3CCCC3)c(OC)cc2n1C1CCCC1 [Compound 38]
< 0.1 µM | CCNc1nc2cc(OCCCN3CCCC3)c(OC)cc2n1CC [Compound 39]
0.1 to 1 µM | CNc1nc2cc(CNCCN3CCCC3)c(OC)cc2n1C(C)C [Compound 40]
< 0.1 µM | CCn1c(NC)nc2cc(CNCCN3CCCC3)c(OC)cc21 [Compound 41]
< 0.1 µM | CCn1c(NC)nc2cc(OCCCN3CCCC3)c(OC)cc21 [Compound 42]
< 0.1 µM | CNC1=Nc2cc(CNCCN3CCCC3)c(OC)cc2C12CCC2 [Compound 70]
< 0.1 µM | CCNC1=Nc2cc(CNCCN3CCCC3)c(OC)cc2C12CCC2 [Compound 71]
< 0.1 µM | CCNC1=Nc2cc(CNCCN3CCC3)c(OC)cc2C12CCC2 [Compound 72]
< 0.1 µM | CCCNC1=Nc2cc(CNCCN3CCCC3)c(OC)cc2C12CCC2 [Compound 73]
< 0.1 µM | CNC1=Nc2cc(C#CCN3CCCC3)c(OC)cc2C12CCC2 [Compound 74]
< 0.1 µM | CNC1=Nc2cc(C#CCN3CCCCC3)c(OC)cc2C12CCC2 [Compound 75, 5′-methoxy-N-methyl-6′-(3-(piperidin-1-yl)prop-1-yn-1-yl)spiro[cyclobutane-1,3′-indol]-2′-amine]
1 to 10 µM | COc1cc2c(cc1CNCCN1CCCC1)N=C(NC1CCOCC1)C21CCC1 [Compound 76]
< 0.1 µM | CNC1=Nc2cc(C#CC(C)N3CCCC3)c(OC)cc2C12CCC2 (stereo not drawn) [Compound 84]
< 0.1 µM | CNC1=Nc2cc(C#C[C@H](C)N3CCCC3)c(OC)cc2C12CCC2 [Compound 85]
0.1 to 1 µM | CNC1=Nc2cc(C#C[C@@H](C)N3CCCC3)c(OC)cc2C12CCC2 [Compound 86]
< 0.1 µM | CNC1=Nc2cc(C#CC(C)N3CCCCC3)c(OC)cc2C12CCC2 (stereo not drawn) [Compound 92]
< 0.1 µM | COCCNC1=Nc2cc(C#CCN3CCCCC3)c(OC)cc2C12CCC2 [Compound 99]
0.1 to 1 µM | CNC1=Nc2cc(C#CCN3CCC(F)C3)c(OC)cc2C12CCC2 (stereo not drawn) [Compound 100]
1 to 10 µM | CNc1nc2cc(CNCCN3CCCC3)c(Cl)cc2n1C(C)C [Compound 138]
1 to 10 µM | CNc1nc2cc(CNCCN3CCCC3)c(C)cc2n1C(C)C [Compound 139]
